The text below walks through data of ChEMBL document CHEMBL4152367, “Discovery of a Potent Thiazolidine Free Fatty Acid Receptor 2 Agonist with Favorable Pharmacokinetic Properties” (J Med Chem, 2018).

Structures are written as SMILES. pEC50: −log10 of the molar value. Active and inactive are the calls of the source. No cut-off for these calls is given here.

Data set [1] addresses T1, Free fatty acid receptor 2 (Homo sapiens) (UniProt O15552).
T1 sequence (whole entry): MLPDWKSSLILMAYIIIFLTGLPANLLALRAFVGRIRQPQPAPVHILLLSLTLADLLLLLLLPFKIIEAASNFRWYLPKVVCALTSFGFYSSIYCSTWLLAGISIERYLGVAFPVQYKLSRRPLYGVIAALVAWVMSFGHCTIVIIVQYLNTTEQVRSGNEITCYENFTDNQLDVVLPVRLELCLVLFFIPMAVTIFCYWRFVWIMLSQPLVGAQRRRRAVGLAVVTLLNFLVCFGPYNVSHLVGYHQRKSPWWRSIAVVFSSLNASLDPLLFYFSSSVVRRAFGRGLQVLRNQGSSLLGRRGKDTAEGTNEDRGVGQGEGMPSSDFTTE
The data set is described as follows: Agonist activity to human FFA2R expressed in HEK293T cells assessed as induction beta-arrestin-2 recruitment up to 30 uM after 10 mins by BRET assay relative control. The data set is classed as functional, cell-based.

For data set [2], the target named is T1, Free fatty acid receptor 2 (Homo sapiens). The data set is described as follows: Agonist activity at human FFA2R expressed in Flp-InT-REx 293 cells assessed as reduction of forskolin-induced cAMP production up to 30 uM after 30 mins by TR-FRET assay relative to control. It counts as functional, cell-based.
For data set [3], the target named is T2, Free fatty acid receptor 2 (Mus musculus, UniProt Q8VCK6).
T2 sequence (Q8VCK6 whole entry): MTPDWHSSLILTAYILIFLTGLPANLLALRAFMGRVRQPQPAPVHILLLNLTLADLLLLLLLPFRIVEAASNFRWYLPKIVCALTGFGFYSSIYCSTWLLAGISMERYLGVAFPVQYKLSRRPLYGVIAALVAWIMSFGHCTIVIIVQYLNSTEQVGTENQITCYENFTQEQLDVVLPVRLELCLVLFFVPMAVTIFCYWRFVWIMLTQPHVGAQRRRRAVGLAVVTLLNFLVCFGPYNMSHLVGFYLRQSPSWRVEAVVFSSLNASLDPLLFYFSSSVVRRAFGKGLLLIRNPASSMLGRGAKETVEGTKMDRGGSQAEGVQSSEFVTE
Briefly: Agonist activity at FFA2R in mouse mature adipocytes assessed as inhibition of isoproterenol-induced glycerol production.

The target in data set [4] is T1, Free fatty acid receptor 2 (Homo sapiens). The data set is described as follows: Agonist activity to human FFA2R expressed in HEK293T cells assessed as induction beta-arrestin-2 recruitment at 100 uM after 10 mins by BRET assay relative to control. The data set is classed as functional, cell-based.
Data set [5] is described as follows: AUC (0 to infinity) in Balb/c mouse at 5 mg/kg, ip by HPLC-MS/MS analysis. The data set is classed as ADME, organism-based. On the set-up: dose 5 mg/kg, time infinity, route intraperitoneal. As to conditions: in vivo.
The nature of data set [6]: Half life in Balb/c mouse at 5 mg/kg, ip by HPLC-MS/MS analysis. As to conditions: in vivo. The data set is classed as ADME, organism-based.

Regarding `COc1ccccc1-c1ccc(C(=O)N2[C@H](C(=O)O)CO[C@@H]2C(C)(C)C)cc1`, the outcome in data set [1] and in data set [2] was inactive.

For the molecule `CCC(=O)O` [PROPIONIC ACID], the pEC50 in data set [3] is 3.60.

Take `Cc1noc(C)c1-c1ccc(C(=O)N2[C@@H](c3ccccn3)SC[C@H]2C(=O)O)cc1`: the outcome in data set [2] was inactive.

For the molecule `COc1ccccc1-c1ccc(C(=O)N2[C@H](C(=O)O)CS[C@@H]2C(C)(C)C)cc1`, the Activity in data set [4] came out at 50%. The outcome in data set [2] was inactive.

`O=C(O)[C@@H]1CS[C@H](c2ccccc2Cl)N1C(=O)c1ccccc1`: the result in data set [1] and in data set [2] was inactive.

Molecule `COc1ccccc1-c1ccc(C(=O)N2[C@@H](c3ccccc3Cl)CC[C@H]2C(=O)O)cc1` had an AUC(0-inf) in data set [5] of 417 ng·h/mL. In addition, the half-life in data set [6] came to 50 min.
